Experimental data from patent US20250255923A1, “METHODS FOR EXTRACTING MELATONIN AND COMPOSITIONS THEREOF” (priority 2023, published 2025).

Experiments:
Format in all cases: in vivo
[1] = system: mice; test: Sleep induced by over-threshold dose of pentobarbital sodium in mice; details: pentobarbital sodium 40 mg/kg 60 min after last dose, twice daily for three days, Diazepam 20 mg/kg BW, Tomato Extract 3 mg/kg BW (melatonin content), Synthesized Melatonin 5 mg/kg BW; for Number of Mice that Fell Asleep: 10 mice, within 30 minutes
[2] = system: mice; test: Sleep induced by sub-threshold dose of pentobarbital sodium in mice; details: pentobarbital sodium 25 mg/kg 60 min after last dose, twice daily for three days, Diazepam 20 mg/kg BW, Tomato Extract 3 mg/kg BW (melatonin content), Synthesized Melatonin 5 mg/kg BW; for Number of Mice that Fell Asleep: 10 mice, within 30 minutes
[3] = system: mice; test: Threshold dose experiment of pentobarbital sodium (sleep rate within 30 minutes post-injection); details: for Sleep Rate (%) / Number of Mice that Fell Asleep: within 30 minutes; for Number of Mice that Fell Asleep: 10 mice
Procedure: Threshold Dose Experiment of Pentobarbital Sodium: A total of 40 mice were randomly divided into four groups, with 10 mice in each group. Each group received an intraperitoneal injection of pentobarbital sodium at the following doses: 25 mg/kg bodyweight (BW), 30 mg/kg BW, 35 mg/kg BW, and 40 mg/kg BW. The sleep rates of the mice were recorded within 30 minutes post-injection.
Based on the experimental results, it appears that the lower threshold dose of pentobarbital sodium is 25 mg/kg BW (“sub-threshold dose”). Based on the experimental results, it appears that the upper threshold dose of pentobarbital sodium is 40 mg/kg BW (“over-threshold dose”). The lower threshold was used for subsequent studies.

[4] = mice, intraperitoneal, sleep within 30 minutes

Compound | Sleep Latency [1] | Sleep Rate (%) [1] | Total Sleep Duration [1] | Number of Mice that Fell Asleep [1] | Sleep Latency [2] | Sleep Rate (%) [2] | Total Sleep Duration [2] | Number of Mice that Fell Asleep [2] | Sleep Rate (%) ([3]; 25 mg/kg BW intraperitoneal) | Number of Mice that Fell Asleep ([3]; 25 mg/kg BW intraperitoneal) | Sleep Rate (%) ([3]; 30 mg/kg BW intraperitoneal) | Number of Mice that Fell Asleep ([3]; 30 mg/kg BW intraperitoneal) | Sleep Rate (%) ([3]; 35 mg/kg BW intraperitoneal) | Number of Mice that Fell Asleep ([3]; 35 mg/kg BW intraperitoneal) | Sleep Rate (%) ([3]; 40 mg/kg BW intraperitoneal) | Number of Mice that Fell Asleep ([3]; 40 mg/kg BW intraperitoneal) | lower threshold dose (sub-threshold dose) [3, 4] | upper threshold dose (over-threshold dose) [3, 4]
COc1ccc2[nH]cc(CCNC(C)=O)c2c1 [Chemically Synthesized Melatonin, N-acetyl-5-methoxytruptamine] | 4.53 min | 100% | 62.56 min | 10 | 6.33 min | 100% | 21.56 min | 10 |  |  |  |  |  |  |  |  |  | 
CN1C(=O)CN=C(c2ccccc2)c2cc(Cl)ccc21 [Diazepam] | 5.13 min | 100% | 58.23 min | 10 | 7.89 min | 100% | 19.23 min | 10 |  |  |  |  |  |  |  |  |  | 
CCCC(C)C1(CC)C(=O)NC(=O)NC1=O (stereo not shown) [Pentobarbital Sodium, pentobarbital sodium] | 12.69 min | 100% | 13.50 min | 10 | 12.37 min | 10% | 11.50 min | 1 | 10% | 1 | 50% | 5 | 80% | 8 | 100% | 10 | 25 mg/kg BW | 40 mg/kg BW
